SMILES strings stand for the structures.

The first assay deals with T1, acyl-CoA: cholesterol acyltransferase (ACAT) (Oryctolagus cuniculus, UniProt G1SFD9).
T1 construct: in a tissue preparation containing rabbit intestinal microsomes; from tissue; host or cells: rabbit intestinal microsomes
T1 sequence (G1SFD9 1-524): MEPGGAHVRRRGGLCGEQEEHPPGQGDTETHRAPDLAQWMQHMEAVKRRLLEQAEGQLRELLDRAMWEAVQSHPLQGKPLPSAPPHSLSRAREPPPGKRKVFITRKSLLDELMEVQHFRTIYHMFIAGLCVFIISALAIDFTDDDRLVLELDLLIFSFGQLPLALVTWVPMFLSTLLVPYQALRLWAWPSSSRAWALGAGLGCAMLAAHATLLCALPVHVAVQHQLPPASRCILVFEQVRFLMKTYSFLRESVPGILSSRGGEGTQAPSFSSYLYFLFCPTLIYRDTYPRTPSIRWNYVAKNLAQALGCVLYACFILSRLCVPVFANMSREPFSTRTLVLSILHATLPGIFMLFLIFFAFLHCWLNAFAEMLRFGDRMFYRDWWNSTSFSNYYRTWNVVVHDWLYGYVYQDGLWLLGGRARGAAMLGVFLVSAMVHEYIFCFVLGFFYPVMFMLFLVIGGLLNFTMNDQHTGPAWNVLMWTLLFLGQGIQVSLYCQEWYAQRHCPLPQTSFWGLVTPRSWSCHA
Kind of assay: in vitro inhibition of ACAT (IAI), radiolabeled cholesterol oleate formation in rabbit intestinal microsomes. The format is biochemical.
Conditions: not given
On the procedure:
The ability of representative compounds of the present invention to inhibit ACAT was measured using an in vitro test more fully described in F. J. Field and R. G. Salone, Biochemica et Biophysica 712:557-570 (1982). The test assesses the ability of a test compound to inhibit the acylation of cholesterol by oleic acid by measuring the amount of radiolabeled cholesterol oleate formed from radiolabeled oleic acid in a tissue preparation containing rabbit intestinal microsomes.
Compound `CC(C)c1cccc(C(C)C)c1NC(=O)NS(=O)(=O)N(C(C)C)C(C)C` [Example 28, N-[2,6-bis(1-methylethyl)phenyl]-N'-[(diisopropylamino)sulfonyl]urea] had a 50% inhibitory concentration (IC50) of 1100 nM.

The assay is the same for the next values; noted with them: rabbit intestinal microsomes; read-out: IAI IC50.
Take `CCCCN(CCCC)S(=O)(=O)N(C)C(=O)Nc1c(C(C)C)cccc1C(C)C` [Example 44]: the IC50 was over 5000 nM.

In another assay the test system is Plasma TC. Kind of assay: in vivo screen designated APCC, plasma total cholesterol in rats on high fat, high cholesterol diet. Further details: species or system male Sprague-Dawley rats. The following applies: * dosed at 50 mg/kg; rat; high fat, high cholesterol diet with 0.5% cholic acid; read-out: % Change in Plasma TC Values (mg/dl). From the text: In one in vivo screen designated APCC, male Sprague-Dawley rats (200 to 225 g) were randomly divided into treatment groups and dosed at 4 PM with either vehicle (CMC/Tween) or suspensions of compounds in vehicle. The normal chow diet was then replaced with a high fat, high cholesterol diet with 0.5% cholic acid. The rats consumed this diet ad libitum during the night and were sacrificed at 8 AM to obtain blood samples for cholesterol analysis using standard procedures. Statistical differences between mean cholesterol values for the same vehicle were determined using analysis of variance followed by Fisher's least significant test. Compounds were dosed at 30 mg/kg unless otherwise noted.
As for `CC(C)c1cccc(C(C)C)c1NC(=O)NS(=O)(=O)N(Cc1ccccc1)C(C)C` [Example 11, N-[2,6-bis(1-methylethyl)phenyl]-N'-[[(1-methylethyl)(phenylmethyl)amino]sulfonyl]urea], the change in vivo at 50 mg/kg is -60%.

Still in this assay, the particulars now being: dosed at 30 mg/kg; rat; high fat, high cholesterol diet with 0.5% cholic acid; read-out: % Change in Plasma TC Values (mg/dl).
With `CC(C)c1cccc(C(C)C)c1NC(=O)NS(=O)(=O)N(C(C)C)C(C)C` [Example 28, N-[2,6-bis(1-methylethyl)phenyl]-N'-[(diisopropylamino)sulfonyl]urea], the change in vivo at 30 mg/kg was -60%. The same measure, in the same setting: the figure for `CCCCN(CCCC)S(=O)(=O)N(C)C(=O)Nc1c(C(C)C)cccc1C(C)C` [Example 44] is -8%. In the case of `CC(C)c1cccc(C(C)C)c1NC(=O)NS(=O)(=O)N1CCCCC1` [Example 39, Urea, N-[2,6 bis(1-methylethyl)phenyl]-N'-(1-piperidinylsulfonyl)], the change in vivo at 30 mg/kg is -13%. For the compound `CC(C)c1cccc(C(C)C)c1NC(=O)NS(=O)(=O)N(C(C)C)C1CCCCC1` [Example 21, N-[2,6-bis(1-methylethyl)phenyl]-N'[[cyclohexyl(1-methylethyl)amino]sulfonyl]urea], the change in vivo at 30 mg/kg was -68%.

Consider `CC(C)c1cccc(C(C)C)c1NC(=O)NS(=O)(=O)N(C)CCc1ccccc1` [Example 20, N-[2,6-bis(1-methylethyl)phenyl]-N'-[[methyl(2-phenylethyl)amino]sulfonyl]urea], for which the change in vivo at 30 mg/kg is -71%. On the same count and under the same terms, as for `CC(C)c1cccc(C(C)C)c1NC(=O)NS(=O)(=O)N(C1CCCCC1)C1CCCCC1` [Example 29, N-[2,6-bis(1-methylethyl)phenyl]-N'-[(dicyclohexylamino)sulfonyl]urea], the figure is -64%. For `CC(C)c1cccc(C(C)C)c1NC(=O)NS(=O)(=O)N(CCCN(C)C)CCCN(C)C` [Example 15, N-[[bis[3-(dimethylamino)propyl]amino]sulfonyl]-N'-[2,6-bis(1-methylethyl)phenyl]urea], the change in vivo at 30 mg/kg was -30%.

`CCC(C)N(C(C)CC)S(=O)(=O)NC(=O)Nc1c(C(C)C)cccc1C(C)C` (stereo not drawn) [Example 36, N-[2,6-bis(1-methylethyl)phenyl]-N'-[[bis(1-methylpropyl)amino]sulfonyl]urea]: the change in vivo at 30 mg/kg was -71%. Same read-out and setting: the figure for `CC(C)CN(CC(C)C)S(=O)(=O)NC(=O)Nc1c(C(C)C)cccc1C(C)C` [Example 23, N-[2,6-bis(1-methylethyl)phenyl]-N'-[[bis(2-methylpropyl)amino]sulfonyl]urea] is -75%.

In general, IC50 refers to the midpoint of a concentration-inhibition curve.

These data come from US5288757A, “Aminosulfonyl urea ACAT inhibitors and a method of lowering blood cholesterol levels therewith” (priority 1993, dated 1994).
